Data: patent publication US5393761A, “3-arylindole compounds” (H. Lundbeck A/S, priority 1990, dated 1995)
Where a name gives a salt, the structure may show the parent alone.

Key:
[1] = molecular target: dopamine D-2 receptors in rat corpus striatum (Rattus norvegicus, UniProt P61169); test: Inhibition of ^3H-spiperone (spiroperidol) binding to dopamine D-2 receptors in rat corpus striatum in vitro; conditions: 0.5 nM ^3H-spiperone, rat striatum membranes, 37° C., 10 min
Procedure: By this method the inhibition by drugs of the binding of ^3 H-spiperone (=^3 H-spiroperidol) (0.5 nM) to dopamine D-2 receptors in membranes from rat corpus striatum is determined in vitro. Method and results in Hyttel & Larsen, J. Neurochem, 44, 1615-1622, 1985).
Male Wistar (Mol:Wistar) rats (125-250 g) are sacrificed and striatal tissue is dissected and weighed. The tissue is homogenized (Ultra Turrax, 10 sec.) in 10 ml of ice-cold 50 mM K-phosphate buffer pH 7.4 (at 25° C.). The homogenate is centrifuged twice at 20,000 g for 10 min. at 4° C. with rehomogenization of the pellet in 10 ml ice-cold buffer. The final pellet is homogenized in 1300 vol (w/v) ice-cold buffer.
Incubation tubes kept on ice in triplicate receive 100 μl of drug solution in water (or water for total binding) and 4000 μl Of tissue suspension (final tissue content corresponds to 3.08 mg original tissue). The binding experimental is initiated by addition of 100 μl of ^3 H-spiperone (final concentration 0.5 nM) and by placing the tubes in a 37° C. water bath. After incubation for 10 min. the samples are filtered under vacuum (0-50 mBar) through Whatman GF/F filters (25 mm). The tubes are rinsed with 5 ml ice-cold buffer which are then poured on the filters. Thereafter, the filters are washed with 2×5 ml of buffer. The filters are placed in counting vials and 4 ml of appropriate scintillation fluid (e.g. Picofluor ™15) are added. After shaking for 1 h and storage 2 hrs in the dark the content of radioactivity is determined by liquid scintillation counting. Specific binding is obtained by subtracting the nonspecific binding in the presence of 10 μM of 6,7-ADTN.
For determination of the inhibition of binding five concentrations of drugs covering 3 decades are used.
The measured cpm are plotted against drug concentration on semilogarithmic paper and the best fitting S-shaped curve is drawn. […] England, specific activity 15-25 Ci/mmol.

[2] = molecular target: T1, serotonin S2 (5-HT2) receptors in rat cortex (Rattus norvegicus, UniProt P14842); test: Inhibition of ^3H-ketanserin binding to serotonin S2 (5-HT2) receptors in rat cortex in vitro; conditions: 0.5 nM ^3H-ketanserin, rat cortex membranes, 37° C., 30 min
T1 construct: Serotonin S2 (5-HT2) receptors in membranes from rat; from tissue; host or cells: cerebral cortex membranes of male Wistar rats (printed 'conical tissue', a misprint for cortical)
T1 sequence (P14842 whole entry): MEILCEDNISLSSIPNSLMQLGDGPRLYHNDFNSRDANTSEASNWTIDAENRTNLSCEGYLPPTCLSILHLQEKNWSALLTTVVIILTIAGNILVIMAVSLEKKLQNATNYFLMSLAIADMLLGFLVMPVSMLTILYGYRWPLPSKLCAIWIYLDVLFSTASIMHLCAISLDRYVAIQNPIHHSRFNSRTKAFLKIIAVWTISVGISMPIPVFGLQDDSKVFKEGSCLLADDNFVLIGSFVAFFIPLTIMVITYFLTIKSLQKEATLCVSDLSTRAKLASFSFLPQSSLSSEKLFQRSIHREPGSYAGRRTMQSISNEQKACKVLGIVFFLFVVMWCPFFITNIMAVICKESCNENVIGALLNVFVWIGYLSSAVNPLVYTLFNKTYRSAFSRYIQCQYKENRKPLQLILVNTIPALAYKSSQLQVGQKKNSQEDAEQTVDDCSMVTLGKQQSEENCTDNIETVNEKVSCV
Procedure: Method in Hyttel, Pharmacology & Toxicology, 61, 126-129, 1987.
Male Wistar (Mol:Wist) rats (125-250 g) are sacrificed and conical tissue is dissected and weighed. The tissue is homogenized (Ultra Turrax, 10 sec.) in 10 ml of ice-cold 50 mM tris buffer pH 7.7 (at 25° C.). The centrifuge glassware used in this step has been rinsed by sonication for 10 min. in ethanol. The homogenate is centrifuged twice at 20,000 g for 10 min. at 4° C. with rehomogenization of the pellet in 10 ml ice-cold buffer. The final pellet is homogenized in 500 vol (w/v)ice-cold buffer.
Incubation tubes kept on ice in triplicate receive 100 μl Of drug solution in water (or water for total binding) and 2000 μl of tissue suspension (final tissue content corresponds to 4 mg original tissue). […] After incubation for 30 min. the samples are filtered under vacuum (0-50 mBar) through Whatman GF/F filters (25 mm). The tubes are rinsed with 5 ml ice-cold buffer which are then poured on the filters. Thereafter, the filters are washed with 2×5 ml of buffer. The filters are placed in counting vials and 4 ml of appropriate scintillation fluid (e.g. Picofluor ™15) are added. After shaking for 1 h and storage 2 hrs in the dark the content of radioactivity is determined by liquid scintillation counting. Specific binding is obtained by subtracting the nonspecific binding in the presence of 1 μM mianserin. For determination of the inhibition of binding five concentrations of drugs covering 3 decades are used.
The IC50 value is determined as the concentration at which the binding is 50% of the total binding in control samples minus the nonspecific binding in the presence of 1 μM mianserin.

[3] = literature (Janssen 1988); cited from earlier work
[4] = literature (Klieser, Strauss 1988); cited from earlier work
[5] = literature (Bersani et al. 1990); cited from earlier work
[6] = literature (Colpart et al. 1985); cited from earlier work
[7] = literature (Ceulemans et al. 1985); cited from earlier work

dopamine D-2 receptors in rat corpus striatum, sequence (P61169 whole entry): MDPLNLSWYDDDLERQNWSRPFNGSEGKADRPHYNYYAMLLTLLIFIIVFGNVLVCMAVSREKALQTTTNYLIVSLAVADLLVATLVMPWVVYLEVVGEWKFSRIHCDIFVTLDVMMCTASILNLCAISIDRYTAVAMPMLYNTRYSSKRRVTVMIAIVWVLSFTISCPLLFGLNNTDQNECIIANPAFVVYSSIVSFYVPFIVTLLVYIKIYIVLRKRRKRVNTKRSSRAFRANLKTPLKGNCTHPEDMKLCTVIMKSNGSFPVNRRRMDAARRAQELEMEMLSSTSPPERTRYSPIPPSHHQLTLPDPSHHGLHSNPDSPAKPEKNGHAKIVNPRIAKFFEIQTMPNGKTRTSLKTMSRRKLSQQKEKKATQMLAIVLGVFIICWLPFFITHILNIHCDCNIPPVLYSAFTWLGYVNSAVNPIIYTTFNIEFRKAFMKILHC

Row | Structure (SMILES) | IC50 [1] [nM] | IC50 [2] [nM] | also measured
1 | Cc1ccc2c(c1)c(-c1ccc(F)cc1)cn2C1=CCN(CCN2CCNC2=O)CC1 [Compound 6c, 3-(4-Fluorophenyl)-1-[1-[2-(imidazolidin-2-on-1-yl)ethyl]-1,2,3,6-tetrahydropyridin-4-yl]-5-methyl-1H-indole] | 320 | 1.4 | –
2 | Cc1ccc2c(c1)c(-c1ccc(F)cc1)cn2C1=CCN(C)CC1 [Compound 6d, 3-(4-Fluorophenyl)-5-methyl-1-(1-methyl-1,2,3,6-tetrahydropyridin-4-yl)-1H-indole, maleate] | 32 | 4.4 | –
3 | Cc1c(-c2ccccc2)c2cc(Cl)ccc2n1C1=CCN(C)CC1 [Compound 6e, 5-Chloro-2-methyl-1-(1-methyl-1,2,3,6-tetrahydropyridin-4-yl)-3-phenyl-1H-indole, oxalate] | 1000 | 9.4 | –
4 | O=C1NCCN1CCN1CC=C(n2cc(-c3ccc(F)cc3)c3cc(C(F)(F)F)ccc32)CC1 [Compound 6f, 3-(4-Fluorophenyl)-1-[1-[2-(imidazolidin-2-on-1-yl)ethyl]-1,2,3,6-tetrahydropyridin-4-yl]-5-trifluoromethyl-1H-indole] | 440 | 3.6 | –
5 | Cc1ccc2c(c1)c(-c1ccc(F)cc1)c(C)n2C1CCN(CCN2CCNC2=O)CC1 [Compound 7a, 2,5-Dimethyl-3-(4-fluorophenyl)-1-[1-[2-(imidazolidin-2-on-1-yl)ethyl]-4-piperidyl]-1H-indole] | 6900 | 3.4 | –
6 | O=C1NCCN1CCN1CCC(n2cc(-c3ccc(F)cc3)c3cc(C(F)(F)F)ccc32)CC1 [Compound 7b, 3-(4-Fluorophenyl)-1-[1-[2-(imidazolidin-2-on-1-yl)ethyl]-4-piperidyl]-5-trifluoromethyl-1H-indole] | > 1000 | 6.2 | –
7 | Cc1c(-c2ccccc2)c2ccccc2n1C1CCN(CCN2CCNC2=O)CC1 [Compound 7c, 1-[1-[2-(Imidazolidin-2-on-1-yl)ethyl]-4-piperidyl]-2-methyl-3-phenyl-1H-indole] | 5300 | 7.8 | –
8 | Cc1ccc2c(c1)c(-c1ccc(F)cc1)c(C)n2C1CCN(C)CC1 [Compound 9a, 2,5-Dimethyl-3-(4-fluorophenyl)-1-(1-methyl-4-piperidyl)-1H-indole] | 2600 | 5.3 | –
9 | Cc1c(-c2ccccc2)c2cc(Cl)ccc2n1C1CCN(C)CC1 [Compound 9b, 5-Chloro-2-methyl-3-phenyl-1-(1-methyl-4-piperidyl)-1H-indole] | 2900 | 17 | –
10 | Cc1ccc2c(c1)c(-c1ccc(F)cc1)cn2C1CCN(C)CC1 [Compound 11a, 3-(4-Fluorophenyl)-5-methyl-1-(1-methyl-4-piperidyl)-1H-indole, fumarate] | 540 | 4.5 | –
11 | Cc1ccc2c(c1)c(-c1ccc(F)cc1)cn2C1CCN(CCNC(=S)N(C)C)CC1 [Compound 13a, 1-[1-[2-(3,3-Dimethyl-1-thioureido)ethyl]-4-piperidyl]-3-(4-fluorophenyl)-5-methyl-1H-indole] | 250 | 3.7 | –
12 | Cc1ccc2c(c1)c(-c1ccc(F)cc1)cn2C1CCN(CCNC(=O)N(C)C)CC1 [Compound 13b, 1-[1-[2-(3,3-Dimethyl-1-ureido)ethyl]-4-piperidyl]-3-(4-fluorophenyl)-5-methyl-1H-indole] | 260 | 2.3 | –
13 | CNC(=O)N(C)CCN1CCC(n2cc(-c3ccc(F)cc3)c3cc(C)ccc32)CC1 [Compound 15a, 1-[1-[2-(1,3-Dimethyl-1-ureido)ethyl]-4-piperidyl]-3-(4-fluorophenyl)-5-methyl-1H-indole, hydrochloride] | > 1000 | 1.8 | –
14 | Cc1ccc2c(c1)c(-c1ccc(F)cc1)cn2C1CCN(CCO)CC1 [Compound 16a, 3-(4-Fluorophenyl)-1-[1-(2-hydroxyethyl)-4-piperidyl]-5-methyl-1H-indole, oxalate] | 1500 | 22 | –
15 | Cc1ccc2c(c1)C(c1ccc(F)cc1)CN2C1CCN(CCN2CCNC2=O)CC1 (centres unmarked) [Compound 18b, 2,3-Dihydro-3-(4-fluorophenyl)-1-[1-[2-(imidazolidin-2-on-1-yl)ethyl]-4-piperidyl]-5-methyl-1H-indole] | 1100 | 4.3 | –
16 | Cc1ccc2c(c1)c(-c1ccc(F)cc1)cn2N1CCN(C)CC1 [Compound 20a, 3-(4-Fluorophenyl)-5-methyl-1-(1-methylpiperazin-4-yl)-1H-indole] | 3900 | 13 | –
17 | CC(=O)N1CCN(CCN2CCC(n3cc(-c4ccc(F)cc4)c4cc(C)ccc43)CC2)C1=O [Compound 21a, 1-[1-[2-(3-Acetylimidazolidin-2-on-1-yl)ethyl]-4-piperidyl]-3-(4-fluorophenyl)-5-methyl-1H-indole, oxalate] | 890 | 18 | –
18 | Cc1ccc2c(c1)c(-c1ccc(F)cc1)c(Cl)n2C1CCN(CCN2CCN(C(C)C)C2=O)CC1 [Compound 27a, 2-Chloro-3-(4-fluorophenyl)-5-methyl-1-[1-[2-[3-(2-propyl)imidazolidin-2-on-1-yl]ethyl]-4-piperidyl]-1H-indole] | 3200 | 10 | –
19 | Cc1nc2sccn2c(=O)c1CCN1CCC(=C(c2ccc(F)cc2)c2ccc(F)cc2)CC1 [Ritanserin] | – | – | quality of sleep (in words) [3]: shown to improve the quality of sleep; antidepressant effect and depressive symptoms of schizophrenia (in words) [4]: shown to be an antidepressant and to improve depressive symptoms of schizophrenia; relief of neuroleptic-induced parkinsonism (in words) [5]: found to relieve neuroleptic-induced parkinsonism; anxiolytic-like effect (in words) [6]: exert effects in an animal test reminiscent of anxiolytic drug activity
20 | Cc1nc2n(c(=O)c1CCN1CCC(C(=O)c3ccc(F)cc3)CC1)CCS2 [setoperone] | – | – | improvement of negative symptoms of schizophrenia (in words) [7]: blockade of 5-HT2 receptors may be related to improvement of negative symptoms of schizophrenia
